Literature values in patent US20020132846A1, “Use of gamma substituted gamma-butyrolactones to increase levels of their corresponding substituted gamma-hydroxybutyrate derivatives in humans” (priority 2001, published 2002).

Columns and labels:
lactonase = details: oral ingestion, lactonase catalyzed hydrolysis; reference (7)
[1] = used according to prescribed dosing levels and schedules

## CC(O)CCC(=O)O (stereo not shown) [4-methyl substituted gamma-hydroxybutyrate]
GHB receptor; compared with gamma-hydroxybutyrate itself
  affinity for the GHB receptor: greater affinity than gamma-hydroxybutyrate itself
GHB receptor; relative to gamma-hydroxybutyrate, reference (8)
  more potent at the receptor than gamma-hydroxybutyrate itself: 15%

## O=C1CCCO1 [gamma-butyrolactone]
lactonase
  formation of the parent compound gamma-hydroxybutyrate: rapidly forms the parent compound

## O=C(O)CCCO [gamma-hydroxybutyrate]
[1]
  physical or psychological addiction: no reports of physical or psychological addiction
